Ends that are not written are not given here.
Experiments:
[1] = molecular target: T1, dipeptidyl-peptidase IV (DPP-IV) (Homo sapiens, UniProt P27487); experiment: DPP-IV inhibition assay on traditionally-synthesized peptides; format: biochemical; details: 250 µM of peptides (final assay concentration); averages of three determinations
T1 construct: purchased Creative BioMart (Shirley, NY, USA); host or cells: HEK293 human cells
From the text: (§1) Recombinant human dipeptidyl-peptidase IV (DPP-IV, EC 3.4.14.5, expressed in HEK293 human cells, >95% purity, activity >5500 pmoles Gly–Pro–7-amido-4-methylcoumarin/min/µg) was purchased from Creative BioMart (Shirley, NY, USA) while polyclonal goat DPP-IV antibody and polyclonal donkey anti-goat secondary antibody conjugated to horseradish peroxidase were obtained from R&D Systems (Minneapolis, MN, USA). Pierce™ ECL western blotting substrate and protein-free (TBS) blocking buffer were from Thermo Scientific (Rockford, IL, USA). Gly–Pro–p-nitroanilide (H-Gly–Pro–p-NA∙HCl) was purchased from Bachem Americas (Torrance, CA, USA). Synthesized peptides (≥95% purity) were prepared and purified by GL Biochem (Shanghai) Ltd. (Shanghai, China).
The peptides were dissolved in a mixture of acetonitrile and H2O and further diluted in 100 mM Tris-HCl pH 8.0 buffer to the desired concentrations. In a 96-well microplate, 25 µL of sample were pre-incubated with 25 µL of 100 mM Tris-HCl pH 8.0 buffer and 35 µL of Gly–Pro–p-NA (0.29 mM in 100 mM Tris-HCl buffer pH 8.0) at 37 °C for 10 min. The enzymatic reaction was started by addition of 15 µL of DPP-IV solution (25 mU/mL) and carried out at 37 °C for 30 min. Sodium acetate buffer (1 M, pH 4.0, 100 µL) was added to stop the reaction and the absorbance of the released p-nitroaniline was measure at 405 nm using a Tecan Infinite® 200 Pro microplate reader. The positive and negative controls were prepared by using Tris-HCl buffer (100 mM, pH 8.0) in place of the sample and in place of the sample and enzyme solution, respectively.

[2] = molecular target: T1, dipeptidyl-peptidase IV (DPP-IV); experiment: DPP-IV inhibition assay on SPOT-synthesized peptides (cleaved from cellulose membrane); format: biochemical; details: peptides cleaved from cellulose membrane, concentration not known (semi-quantitative), averages of four determinations from two experiments
From the text: as §1
Peptide arrays of deca-peptides spanning the entire α-lactalbumin sequence with a frame shift of one amino acid between successive sequences were prepared by Kinexus Bioinformatics Corporation (Vancouver, BC, Canada). The peptides were synthesized from the C-terminal amino acid using the SPOT technology consisting of the stepwise coupling of the Fmoc-protected amino acids and cleavage of the side chain protection groups. The α-lactalbumin-derived peptides were synthesized on trioxatridecanediamine (TOTD) and β-alanine-modified Whatman 540 cellulose membranes for the binding and inhibition assays, respectively. For the inhibition assay, the peptides were synthesized in large dots (5–7 mm in diameter) and the quality of the synthesis was verified by HPLC analysis of quality controls spots included on the membranes.
In order to determine the effect of the SPOT-synthesized peptides on the activity of the DPP-IV enzyme, the peptides were first cleaved from the cellulose support by incubating the membranes with gaseous ammonia overnight. Peptide spots (5 mm in diameter) were then punched out using a single-hole punch and transferred into microcentrifuge tubes containing 150 µL of acetonitrile (50% in 100 mM Tris–HCl buffer pH 8.0). The peptide solution (50 µL) was pipetted into a 96-well microplate with 35 µL of the chromogenic substrate Gly–Pro–p-NA (0.29 mM in 100 mM Tris–HCl buffer pH 8.0). The mixture was pre-incubated for 10 min at 37 °C, whereupon 15 µL of DPP-IV (25 mU/mL) was added and the enzymatic reaction was carried out for 30 min at 37 °C. The reaction was then terminated by addition of 100 µL of 1 M sodium acetate buffer pH 4.0 and the absorbance of the released p-nitroaniline was measured at 405 nm using a Tecan Infinite® 200 Pro microplate reader (ESBE Scientific, Markham, ON, Canada). Positive and negative controls (DPP-IV activity with no inhibitor and no DPP-IV activity, respectively) were prepared using punched peptide-free cellulose spots from the same membrane used for peptide synthesis, and adding Tris-HCl buffer in place of the sample and in place of the sample and enzyme solution, respectively.
One unit of DPP-IV was defined as the concentration of enzyme that releases 1 µmol per min of p-nitroaniline from Gly–Pro–p-NA (100 µM) at 37 °C and pH 8.0.

[3] = molecular target: T1, dipeptidyl-peptidase IV (DPP-IV); experiment: Probing of membrane-bound peptide arrays: binding of DPP-IV to deca-peptides (immunoassay, chemiluminescence); details: peptide array on cellulose membrane, DPP-IV 10 μg/mL
Description: The interaction between the DPP-IV enzyme and deca-peptides spanning the entire α-lactalbumin sequence (Table S1) was first determined by immunoassay and visualized using an enhanced chemiluminescence substrate (Figure 1).
The membranes were first blocked with protein-free (Tris-buffered saline (TBS)) blocking buffer containing 0.05% Tween-20 for 4 h at room temperature and then incubated with DPP-IV (10 μg/mL in blocking buffer) overnight at 4 °C. The membranes were washed with TBS (50 mM Tris, 136 mM NaCl, 0.05% Tween-20, pH 8.0) four times for 15 min each, after which they were incubated with the polyclonal goat DPP-IV antibody (0.2 µg/mL) for 8 h at 4 °C. The membranes were once again washed with TBS four times for 15 min each prior to being incubated with anti-goat secondary antibody conjugated to horseradish peroxidase (0.1 µg/mL) overnight at 4 °C. Finally, the membranes were washed four more times for 15 min each; then a thin layer of chemiluminescence detection mixture, prepared according to the manufacturer’s instructions, was applied for 1 min and the luminescence generated from the spots on the membranes with bound DPP-IV was measured using a ChemiDoc™ MP system (Bio-Rad Laboratories (Canada) Ltd., Mississauga, ON, Canada).

[4] = molecular target: T1, dipeptidyl-peptidase IV (DPP-IV); experiment: Determination of the mode of inhibition and the inhibition constant (Ki); format: biochemical
Description: The traditionally-synthesized peptides showing the highest inhibitory activity against DPP-IV were further studied for their mode of action on the enzyme as previously described with the following modifications: the substrate (25 µL) was combined with 100 mM Tris-HCl buffer pH 8.0 (35 µL) and the sample (25 µL) and pre-incubated for 10 min at 37 °C, after which the enzymatic reaction was started by addition of the DPP-IV enzyme (15 µL of a 25 mU/mL solution).
The mode of inhibition and Ki values of the inhibitory peptides were determined by fitting the initial velocity versus substrate concentration data to nonlinear regression models using the GraphPad Prism software (version 6, GraphPad Software, San Diego, CA, USA). The Ki values are expressed as final assay concentrations.

T1 sequence (P27487 whole entry): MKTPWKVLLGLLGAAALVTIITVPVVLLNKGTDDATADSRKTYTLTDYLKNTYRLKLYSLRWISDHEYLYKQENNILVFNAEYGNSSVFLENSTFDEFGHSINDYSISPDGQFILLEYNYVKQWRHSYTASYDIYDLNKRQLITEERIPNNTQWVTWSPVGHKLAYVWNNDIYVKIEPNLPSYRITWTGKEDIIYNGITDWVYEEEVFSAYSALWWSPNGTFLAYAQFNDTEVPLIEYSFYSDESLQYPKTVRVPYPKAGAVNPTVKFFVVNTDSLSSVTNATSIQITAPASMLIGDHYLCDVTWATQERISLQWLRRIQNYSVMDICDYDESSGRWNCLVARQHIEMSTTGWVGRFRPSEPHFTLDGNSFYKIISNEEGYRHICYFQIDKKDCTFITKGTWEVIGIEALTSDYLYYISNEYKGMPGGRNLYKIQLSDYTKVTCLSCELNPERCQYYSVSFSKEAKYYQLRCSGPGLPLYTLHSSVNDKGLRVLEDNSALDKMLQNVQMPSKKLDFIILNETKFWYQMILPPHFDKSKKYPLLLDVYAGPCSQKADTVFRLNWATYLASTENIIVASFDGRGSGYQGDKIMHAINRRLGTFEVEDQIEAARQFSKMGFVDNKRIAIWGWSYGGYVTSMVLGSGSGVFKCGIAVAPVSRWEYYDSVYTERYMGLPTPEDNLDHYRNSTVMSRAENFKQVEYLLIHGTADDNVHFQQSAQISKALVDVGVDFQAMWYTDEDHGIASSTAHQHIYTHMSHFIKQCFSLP

CKDDQNPHSS [F6, CKDDQNPHSS]
inhibition at 250 µM [1]: -3% | Percent inhibition of DPP-IV activity, SPOT-synthesized deca-peptides [2]: 15%

DTQAIVQNND [D4, DTQAIVQNND]
inhibition at 250 µM [1]: 2% | Percent inhibition of DPP-IV activity, SPOT-synthesized deca-peptides [2]: 14%

EQLTKCEVFR [A1, EQLTKCEVFR]
inhibition at 250 µM [1]: 10% | Percent inhibition of DPP-IV activity, SPOT-synthesized deca-peptides [2]: 11%

FHTSGYDTQA [C9, FHTSGYDTQA]
inhibition at 250 µM [1]: 2% | Percent inhibition of DPP-IV activity, SPOT-synthesized deca-peptides [2]: 12%

GYGGVSLPEW [B6, GYGGVSLPEW]
inhibition at 250 µM [1]: 8% | Percent inhibition of DPP-IV activity, SPOT-synthesized deca-peptides [2]: 17%

ICNISCDKFL [G6]
Binding of DPP-IV to cellulose-bound deca-peptide (in words) [3]: moderate or no binding | Percent inhibition of DPP-IV activity, SPOT-synthesized deca-peptides [2]: 31%

IPAVFKIDAL [K7, IPAVFKIDAL]
Ki [4]: 156 ± 11 µM | inhibition at 250 µM [1]: 48% | Percent inhibition of DPP-IV activity, SPOT-synthesized deca-peptides [2]: 25%

J3: α-lactalbumin-derived deca-peptide, residues 102–111 (Table S1) (DYWLAHKALC; UniProt P00709 121-130, looked up, fragment)
Percent inhibition of DPP-IV activity, SPOT-synthesized deca-peptides [2]: 15%

J4: α-lactalbumin-derived deca-peptide, residues 103–112 (Table S1) (YWLAHKALCS; UniProt P00711 122-131, looked up, fragment)
Percent inhibition of DPP-IV activity, SPOT-synthesized deca-peptides [2]: 20%

J5: α-lactalbumin-derived deca-peptide, residues 104–113 (Table S1) (WLAHKALCSE; UniProt P00711 123-132, looked up, fragment)
Percent inhibition of DPP-IV activity, SPOT-synthesized deca-peptides [2]: 16%

KALCSEKLDQ [J9]
Percent inhibition of DPP-IV activity, SPOT-synthesized deca-peptides [2]: 24%

KDDQNPHSSN [F7]
Percent inhibition of DPP-IV activity, SPOT-synthesized deca-peptides [2]: 16%

KIWCKDDQNP [F3]
Percent inhibition of DPP-IV activity, SPOT-synthesized deca-peptides [2]: 19%

KKILDKVGIN [I5]
Binding of DPP-IV to cellulose-bound deca-peptide (in words) [3]: strongest binding to DPP-IV | Percent inhibition of DPP-IV activity, SPOT-synthesized deca-peptides [2]: 17% | Percent inhibition of DPP-IV activity, SPOT-synthesized deca-peptides ([2]; listed as KKILDKVGIN): less than 20%

KLDQWLCEKL [K4]
Percent inhibition of DPP-IV activity, SPOT-synthesized deca-peptides [2]: 19%

LAHKALCSEK [J6, LAHKALCSEK]
Ki [4]: 217 ± 9 µM | inhibition at 250 µM [1]: 31% | Percent inhibition of DPP-IV activity, SPOT-synthesized deca-peptides [2]: 27%

LCSEKLDQWL [J11, LCSEKLDQWL]
Ki [4]: 217 ± 15 µM | inhibition at 250 µM [1]: 25% | Percent inhibition of DPP-IV activity, SPOT-synthesized deca-peptides [2]: 25%

LFQINNKIWC [E8]
Percent inhibition of DPP-IV activity, SPOT-synthesized deca-peptides [2]: 13%

LKPTPEGDLE [K6, LKPTPEGDLE]
Ki [4]: 729 ± 128 µM | inhibition at 250 µM [1]: 24% | Percent inhibition of DPP-IV activity, SPOT-synthesized deca-peptides [2]: 23%

NDSTEYGLFQ [E1]
Percent inhibition of DPP-IV activity, SPOT-synthesized deca-peptides [2]: 14%

NKIWCKDDQN [F2]
Percent inhibition of DPP-IV activity, SPOT-synthesized deca-peptides [2]: 17%

NNDSTEYGLF [D11, NNDSTEYGLF]
Percent inhibition of DPP-IV activity, SPOT-synthesized deca-peptides [2]: 11%

NNKIWCKDDQ [F1]
Percent inhibition of DPP-IV activity, SPOT-synthesized deca-peptides [2]: 22%

NPHSSNICNI [F11, NPHSSNICNI]
Percent inhibition of DPP-IV activity, SPOT-synthesized deca-peptides [2]: 15%

QINNKIWCKD [E10, QINNKIWCKD]
Percent inhibition of DPP-IV activity, SPOT-synthesized deca-peptides [2]: 6%

QNNDSTEYGL [D10, QNNDSTEYGL]
Percent inhibition of DPP-IV activity, SPOT-synthesized deca-peptides [2]: 14%

QNPHSSNICN [F10, QNPHSSNICN]
inhibition at 250 µM [1]: 2% | Percent inhibition of DPP-IV activity, SPOT-synthesized deca-peptides [2]: 8%

RELKDLKGYG [A10]
Percent inhibition of DPP-IV activity, SPOT-synthesized deca-peptides [2]: 14%

SCDKFLDDDL [G10]
Percent inhibition of DPP-IV activity, SPOT-synthesized deca-peptides [2]: 21%

SEKLDQWLCE [K2]
Percent inhibition of DPP-IV activity, SPOT-synthesized deca-peptides [2]: 19%

SLPEWVCTTF [B11]
Percent inhibition of DPP-IV activity, SPOT-synthesized deca-peptides [2]: 9%

STEYGLFQIN [E3]
Percent inhibition of DPP-IV activity, SPOT-synthesized deca-peptides [2]: 13%

TEYGLFQINN [E4]
Percent inhibition of DPP-IV activity, SPOT-synthesized deca-peptides [2]: 9%

TSGYDTQAIV [C11, TSGYDTQAIV]
inhibition at 250 µM [1]: -1% | Percent inhibition of DPP-IV activity, SPOT-synthesized deca-peptides [2]: 14%

VFRELKDLKG [A8, VFRELKDLKG]
inhibition at 250 µM [1]: 3% | Percent inhibition of DPP-IV activity, SPOT-synthesized deca-peptides [2]: 14%

VKKILDKVGI [I4]
Binding of DPP-IV to cellulose-bound deca-peptide (in words) [3]: strongest binding to DPP-IV | Percent inhibition of DPP-IV activity, SPOT-synthesized deca-peptides [2]: 18% | Percent inhibition of DPP-IV activity, SPOT-synthesized deca-peptides ([2]; listed as VKKILDKVGI): less than 20%

VQNNDSTEYG [D9]
Percent inhibition of DPP-IV activity, SPOT-synthesized deca-peptides [2]: 13%

VSLPEWVCTT [B10]
Percent inhibition of DPP-IV activity, SPOT-synthesized deca-peptides [2]: 15%

YAEGTFISDY [K9, reference compound]
Binding of DPP-IV to cellulose-bound deca-peptide (in words) [3]: found to bind to DPP-IV | Percent inhibition of DPP-IV activity, SPOT-synthesized deca-peptides [2]: 24%

YGLFQINNKI [E6]
Percent inhibition of DPP-IV activity, SPOT-synthesized deca-peptides [2]: 11%
